In ChEMBL document CHEMBL4814025, “Exploring naltrexamine derivatives featuring azaindole moiety via nitrogen-walk approach to investigate their in vitro pharmacological profiles at the mu opioid receptor” (Bioorg Med Chem Lett, 2021):

Assays:
Mu-type opioid receptor [1] = molecular target: T1, Mu-type opioid receptor (Mus musculus, UniProt P42866); experiment: Displacement of [3H]-NLX from mouse mu opioid receptor expressed in CHO cell membranes measured after 1.5 hrs by competitive radioligand binding assay; set-up: species or system Membrane
[2] = molecular target: Mu-type opioid receptor (Mus musculus) (UniProt P42866); experiment: Partial agonist activity at mouse mu opioid receptor expressed in CHO cell membranes assessed as stimulation of [35S]GTPgammaS binding incubated for 1.5 hrs by scintillation counting method relative to DAMGO; assay type: functional; conditions: Membrane
Mu-type opioid receptor [3] = molecular target: T1, Mu-type opioid receptor; experiment: Partial agonist activity at mouse mu opioid receptor expressed in CHO cell membranes incubated for 1.5 hrs by [35S]GTPgammaS binding based scintillation counting method; assay type: functional, Membrane
[4] = molecular target: Mu-type opioid receptor (Homo sapiens) (UniProt P35372); experiment: Partial agonist activity at mu opioid receptor (unknown origin) expressed in CHO cell membranes incubated for 1 hr by [35S]GTPgammaS binding assay relative to DAMGO; assay type: functional; conditions: Membrane
Sequence of Mu-type opioid receptor (Homo sapiens) (P35372 whole entry): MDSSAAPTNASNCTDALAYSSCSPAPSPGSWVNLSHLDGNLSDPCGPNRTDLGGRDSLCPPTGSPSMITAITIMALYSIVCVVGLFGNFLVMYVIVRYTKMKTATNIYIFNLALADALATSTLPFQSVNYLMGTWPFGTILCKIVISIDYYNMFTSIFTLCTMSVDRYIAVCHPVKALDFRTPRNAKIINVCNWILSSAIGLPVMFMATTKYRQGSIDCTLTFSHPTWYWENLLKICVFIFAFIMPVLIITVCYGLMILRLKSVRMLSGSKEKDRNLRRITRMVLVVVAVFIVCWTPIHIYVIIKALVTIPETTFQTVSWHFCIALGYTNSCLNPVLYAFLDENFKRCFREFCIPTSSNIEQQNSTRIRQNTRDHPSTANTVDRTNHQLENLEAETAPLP

Sequence of Mu-type opioid receptor (Mus musculus) (P42866 whole entry): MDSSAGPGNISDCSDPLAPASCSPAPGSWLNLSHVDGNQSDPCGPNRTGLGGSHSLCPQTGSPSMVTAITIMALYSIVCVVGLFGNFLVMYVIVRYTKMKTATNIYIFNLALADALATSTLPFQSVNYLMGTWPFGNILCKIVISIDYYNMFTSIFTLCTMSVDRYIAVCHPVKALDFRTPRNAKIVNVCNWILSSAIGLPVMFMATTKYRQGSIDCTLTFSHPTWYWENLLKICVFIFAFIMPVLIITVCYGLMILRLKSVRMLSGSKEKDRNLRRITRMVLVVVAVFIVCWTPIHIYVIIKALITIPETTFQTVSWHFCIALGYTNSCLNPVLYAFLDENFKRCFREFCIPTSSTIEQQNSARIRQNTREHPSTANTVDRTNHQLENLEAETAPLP
T1 sequence (P42866 whole entry): as above

Structure (SMILES)	Emax [4]	other results
O=C(N[C@H]1C=C[C@@]2(O)[C@H]3Cc4ccc(O)c5c4[C@@]2(CCN3CC2CC2)[C@H]1O5)c1c[nH]c2ccccc12		Ki (Mu-type opioid receptor [1]): 0.29 nM; Emax [2]: 33.3%; EC50 (Mu-type opioid receptor [3]): 1 nM
O=C(N[C@H]1C=C[C@@]2(O)[C@H]3Cc4ccc(O)c5c4[C@@]2(CCN3CC2CC2)[C@H]1O5)c1n[nH]c2ccccc12	12.3%	
O=C(N[C@@H]1C=C[C@@]2(O)[C@H]3Cc4ccc(O)c5c4[C@@]2(CCN3CC2CC2)[C@H]1O5)c1c[nH]c2ccncc12	14.9%	
O=C(N[C@@H]1C=C[C@@]2(O)[C@H]3Cc4ccc(O)c5c4[C@@]2(CCN3CC2CC2)[C@H]1O5)c1c[nH]c2ccccc12		Ki (Mu-type opioid receptor [1]): 0.19 nM; Emax ([2]; filed as partial agonist): 79.5%; EC50 (Mu-type opioid receptor [3]): 0.22 nM
O=C(N[C@H]1C=C[C@@]2(O)[C@H]3Cc4ccc(O)c5c4[C@@]2(CCN3CC2CC2)[C@H]1O5)c1cccc2cc[nH]c12		Emax [2]: 19.1%
O=C(N[C@@H]1C=C[C@@]2(O)[C@H]3Cc4ccc(O)c5c4[C@@]2(CCN3CC2CC2)[C@H]1O5)c1c[nH]c2cnccc12	26.2%	
O=C(N[C@@H]1C=C[C@@]2(O)[C@H]3Cc4ccc(O)c5c4[C@@]2(CCN3CC2CC2)[C@H]1O5)c1n[nH]c2ccccc12	39.6%	
O=C(N[C@@H]1C=C[C@@]2(O)[C@H]3Cc4ccc(O)c5c4[C@@]2(CCN3CC2CC2)[C@H]1O5)c1c[nH]c2ncccc12		Emax ([4]; filed as partial agonist): 40.7%
O=C(N[C@H]1C=C[C@@]2(O)[C@H]3Cc4ccc(O)c5c4[C@@]2(CCN3CC2CC2)[C@H]1O5)c1c[nH]c2ncccc12	22.1%	
O=C(N[C@H]1C=C[C@@]2(O)[C@H]3Cc4ccc(O)c5c4[C@@]2(CCN3CC2CC2)[C@H]1O5)c1c[nH]c2ccncc12	21.7%	
O=C(N[C@H]1C=C[C@@]2(O)[C@H]3Cc4ccc(O)c5c4[C@@]2(CCN3CC2CC2)[C@H]1O5)c1c[nH]c2cccnc12	18%	
O=C(N[C@@H]1C=C[C@@]2(O)[C@H]3Cc4ccc(O)c5c4[C@@]2(CCN3CC2CC2)[C@H]1O5)c1c[nH]c2cccnc12	22.4%	
O=C(N[C@H]1C=C[C@@]2(O)[C@H]3Cc4ccc(O)c5c4[C@@]2(CCN3CC2CC2)[C@H]1O5)c1c[nH]c2cnccc12	21.1%	
